The source of these data is patent US7498408B2, “Ryanodine receptor polypeptides” (E. I. du Pont de Nemours and Company, priority 2002, dated 2009).

Bounds are passed on as bounds.

Assay [1] concerns native cockroach ryanodine receptors (in embryonic neuronal cells). In words: Calcium release assay, calcium imaging in primary embryonic cockroach neuronal cells. The format is cell-based, Periplaneta americana. As to conditions: for Calcium Release (P. americana): known ryanodine receptor agents, native receptors in embryonic neuronal cells, result in words. The text has this: Embryonic neuronal cultures of the American cockroach Periplaneta americana were established, with minor modifications, following the method of Beadle and Lees (1988) (in Cell Culture Approaches to Invertebrate Neuroscience, Academic Press, New York, pp 123-127). Briefly, 26-27-day old oothecae were collected, surface-sterilized and cut open along a line one-third of the distance below the dorsal midline. The heads were removed and placed in Schneider's Drosophila medium (Invitrogen Life Technologies™, Carlsbad, Calif.). Using fine forceps 40 brains were individually removed and placed in a small glass vial containing 700 μl of ‘5+4’ medium (‘5+4’ medium contained 5 parts Schneider's Drosophila medium plus 4 parts roach Basal Medium Eagle, with Earle's salts (BME, Sigma™, St. Louis, Mo.). Roach BME (with Earle's salts) contained 5 parts Hepes (1 M), 1 part penicillin/streptomycin and 44 parts BME (with Earle's salts). ‘5+4’ medium was made fresh and sterile filtered (0.2 μm filter) just prior to use). The brains were dissociated by sequential trituration as follows: 1) brains were passed through a standard Pasteur pipette 10 times; 2) the resulting tissue suspension was passed an additional 5 times through a Pasteur pipet with tip flamed to about half of its original diameter; 3) a final 5 passes were performed using a Pasteur pipet with tip flamed to slightly less than half of its original diameter. A repeat pipettor was used to dispense a 5 μl volume of the resulting suspension into the center of each well of a 96-well, glass-bottom plate previously coated with poly-L-lysine (0.2 mg/ml solution). Cells attached to the bottom of the wells during a 50 min incubation at 27-29° C. 150 ul of a 1:1 mixture of Leibovitz's L-15 medium and Yunker's modified Grace's medium was added, and plates were maintained in a humid incubator at 27-29° C. until use. After cells were allowed to attach wells were filled with a 1:1 mixture of Leibovitz's L-15 medium and Yunker's modified Grace's medium (Leibovitz's L-15 and Grace's medium were obtained from Invitrogen Life Technologies™, Carlsbad, Calif. and Yunker's modified Grace's medium was made with Grace's medium modified by addition of 5 mg L-methionine, 10 mg L-alanine, 182 mg MgCl26H20, 1 g Albumin Fraction V, 7 ml Fetal bovine serum, 10 ml Chick embryo extract, 2 ml Penicillin/Streptomycin, and 2 mg 20-hydroxyecdysone (prepared in ethanol prior to addition) to a final volume of 100 ml and sterile filtered (0.2 μm filter)). Cells were maintained in a high humidity incubator at 29° C. until testing.
Cells were rinsed in standard physiological saline having the following composition (mM): NaCl 190; CaCl2 9; KCl 3.1; probenicid 1; Tris buffer 10; pH 7.2. Cells were then bathed in standard physiological saline containing the calcium sensitive fluoroprobe Fluo4 AM (2 μM) and Pluronic F127 (0.002%) for 45 min. Cells were then rinsed in standard physiological saline for at least 15 min prior to testing. Within the hour prior to testing, standard physiological saline was replaced with standard physiological saline containing the organic cation channel blocker pimozide (10 μM), to inhibit influx of external calcium through voltage-gated calcium channels. The 96-well plate was placed on a PriorTm motorized stage mounted onto a Nikon Diaphot microscope and imaged using a 20× Fluor objective (NA 0.75). Individual wells from the 96-well plate were sequentially excited with light at 495 nm, and the emitted fluorescence at 530 nm was detected using a Hamamatsu ORCA ER digital camera with 2 pixel binning (image size 672×512 pixels).
Acquisition control, image processing and image analysis were conducted using Universal Imaging Corporation's MetaMorph™ imaging software (Universal Imaging, West Chester, Pa.). A series of 3 “control” images were acquired for each well. Experimental compounds were added followed by acquisition of 4 “experimental” images for each well. […]

Assay [2] concerns the target cockroach ryanodine receptor (roach femoral muscle membranes) (Periplaneta americana, UniProt Z9HFG3YSF4). In words: Radioligand displacement ([3H]-GN analog Cpd 1) from roach femoral muscle membranes. As to conditions: for IC50: read-out: Displacement IC50 (nM) P. americana, displacement of [3H]-Cpd 1, roach muscle membranes, 60 min at 32° C.; for Radioligand Displacement (P. americana): known ryanodine receptor agents, result in words.
Description: Mid and hind legs from 6-9 week old cockroaches were excised and immediately placed in liquid nitrogen. Excised legs could be stored at −80° C. for several months, if necessary, prior to further fractionation. Typically, membrane preparations started with approximately 55 g (wet weight) of excised legs. All subsequent steps were carried out at 4° C.
The legs were homogenized on ice using a Polytron (Brinkmann Instruments, Westbury, N.Y.) for 2 min at Setting #3. In order to remove all fragments of cuticle, the homogenate was first passed through two layers of cheesecloth and then through one layer of glass wool overlaid on two layers of cheesecloth. On occasion, the cheesecloth clogged with particulates prior to passing all material through. In such cases, fresh cheesecloth (and glass wool) was used for the remainder of the suspension. […] The supernatant was collected and centrifuged for 30 min at 30,000×gmax. The resulting pellet was resuspended in buffer A (1.5 M KCl, 0.3 M sucrose, 0.5 mM CaCl2, 20 mM Tris-HCl, pH 8.0). The membrane suspension was homogenized by hand (about 25 strokes) using a glass-teflon homogenizer. […] Subsequently, the membrane suspension was adjusted to 4 μg protein/μg by addition of buffer A and then stored in 1 ml aliquots at −80° C.
The assay was begun by addition of 25 μl of roach muscle membranes at 2 μg/μl (prepared by thawing and addition of an equal volume of buffer B), and incubation was carried out for 60 min at 32° C. Assays were carried out in triplicate.
The compound was allowed to pre-incubate with the membranes for 10 min at 32° C. […] Assays were carried out in triplicate.
Following incubation, assays were quenched with ice-cold buffer B and immediately filtered on pre-wefted Unifilter 96 GF/B filter microplates using a Unifilter 96 Harvester (PerkinElmer™, Boston, Mass.). Each assay well was then washed 10 times with buffer B, and collected on the same filter microplate. The filter microplates were then placed in a vacuum oven at 32° C. for 3 h, following which 50 μl of Microscint 0 (PerkinElmer™, Boston, Mass.) was added to each well. Plates were then heat sealed and counted using a Topcount microplate scintillation counter (PerkinElmer™, Boston, Mass.).

The subject of assay [3] is recombinant Heliothis virescens ryanodine receptor (expressed in Sf9 cells). The assay is described as follows: Calcium release assay in Sf9 cells expressing recombinant Heliothis virescens ryanodine receptor. In kind it is cell-based. As to conditions: caffeine 10 mM; Compound 14 1 μM; Fura-2 AM imaging. The text has this: (§1) Several drops of a suspension of recombinant Spodoptera frugiperda cell line, Sf9, transiently expressing insect ryanodine receptors were placed on a poly-L-lysine-coated coverslip and allowed to attach. Cells were then rinsed in physiological saline having the following composition (mM): NaCl 130; KCl 5.4; MgCl2 1.2; CaCl2 1.0; NaHCO3 4.2; NaH2P04 7.3; Glucose 10; Sucrose 63; MES 20; pH 6.3. Cells were then bathed in physiological saline containing the calcium sensitive fluoroprobe, Fura-2 AM (2 μM), and Pluronic F127 (0.002%) for 30 min. Cells were rinsed in standard physiololgical saline for at least 15 min prior to testing. Testing was conducted in standard physiological saline, as the cell lines are devoid of functional voltage-gated calcium channels.
(§2) Imaging studies were conducted using a Nikon Diaphot microscope with a 40× oil immersion objective (NA 1.3) Image acquisition and processing was performed using the MetaFluor™ imaging system from Universal Imaging Corporation (West Chester, Pa.) Calcium calibration was carried out using the Grynkiewicz equation with a dissociation constant (Kd) of 145 nM for Fura-2 (Grynkiewicz et al., 1985). Cell-attached coverslips were placed in a sealed chamber with physiological saline continuously perfused across the cells using a peristaltic pump. Test compounds solubilized in physiological saline were applied by switching the perfusate source.
(§3) For studies involving the stable recombinant Spodoptera frugiperda cell line, Sf9, (other cell lines could also be used such as Sf21, S2, etc) expressing an insect ryanodine receptor from Drosophila melanogaster, or Heliothis virescens (alternatively receptors from other species such as Myzus persicae, Peregrinus maidis, Aphis gossypii, etc) were grown in T75 (or other appropriate sized) flasks in supplemented Grace's insect medium. Cells were maintained in an incubator at 22° C. until testing. Cells were suspension-loaded with the calcium sensitive fluoroprobe, Fura-2 AM (1-2 μM) and Pluronic F127 (0.002%) in culture medium for 30 minutes under agitation. Cells were then centrifuged and the pellet resuspended in physiological saline having the following composition (mM): NaCl 130; KCl 5.4; MgCl2 1.2; CaCl2 1.0; NaHCO3 4.2; NaH2P04 7.3; Glucose 10; Sucrose 63; MES 20; pH 6.3 at approximately 150,000-200,000 cells per well (96-well plate). After a 30 minute equilibration period the cell plate was tested using a Molecular Devices' FlexStation™ system with dual wavelength excitation (340 and 380 nm) and fluorescence emission measured at 510 nm. Test and control samples were added using integrated fluidics and the intracellular calcium monitored over a 2 minute period.

In assay [4] the target is T1, recombinant Drosophila melanogaster ryanodine receptor (expressed in Sf9 cells) (Drosophila melanogaster, UniProt Q24498).
T1 construct: His tag + attB1 + Lox footprint (N-terminal vector extension; present only if the Cre-Lox vector was the one used) (N); expressed in transfected cells
In kind it is cell-based. As to conditions: for Calcium Release (D. melanogaster): known ryanodine receptor agents, transiently or stably expressed in Sf9 cells, result in words.
Description: as §1
Cell-attached coverslips were placed in a sealed chamber with physiological saline continuously perfused across the cells using a peristaltic pump. Test compounds solubilized in physiological saline were applied by switching the perfusate source.
as §3

The subject of assay [5] is control Sf9 cells without DNA / wild type Sf9. In words: Calcium response in control or wild-type Sf9 cells lacking recombinant receptor. In kind it is cell-based, Spodoptera frugiperda. As to conditions: caffeine 10 mM; Compound 16 10 and 100 nM.
Description: as §1, §2, §3

Take `Oc1c(Br)cc2[nH]c3cnccc3c2c1Br` [Bromoeudistomin D, reference compound]: the “Calcium Release (P. americana)” value in assay [1] is on record as “Agonist”.

As to `CNC(=O)c1cccc(C)c1NC(=O)c1cc(C(F)(F)F)nn1-c1ncccc1Cl` [Cpd 6], in assay [1], the “Calcium Release Threshold (nM) P. americana” value is <300 nM. The half-inhibitory concentration (IC50) in assay [2] is < 300 nM.

Regarding `CNC(=O)c1cc(Cl)cc(C)c1NC(=O)c1cc(Br)nn1-c1ncccc1Cl` [Cpd 14], in assay [1], the “Calcium Release Threshold (nM) P. americana” value is <300 nM. In assay [2], the IC50 is < 300 nM. Moreover, in assay [3], the “calcium responses, Sf9 stably expressing H. virescens ryanodine receptor (FIG. 5)” value is reported as “calcium responses elicited”. In assay [4], the “Calcium Release Threshold (nM) D. melanogaster” value is <300 nM.

In the case of `CNC(=O)c1cc(Cl)cc(C)c1NC(=O)c1cc(Cl)nn1-c1ncccc1Cl` [Cpd 17], the “Calcium Release Threshold (nM) P. americana” value in assay [1] is given as <300 nM. In addition, in assay [2], the IC50 is < 300 nM.

As for `Cc1cc(Cl)cc(C(=O)NC(C)C)c1NC(=O)c1cc(Cl)nn1-c1ncccc1Cl` [Cpd 16], the “Calcium Release Threshold (nM) P. americana” value in assay [1] was <300 nM. Moreover, in assay [2], the IC50 is < 300 nM. Moreover, the “Calcium Release Threshold (nM) D. melanogaster” value in assay [4] is <300 nM. Also, the “calcium responses, Sf9 transiently expressing D. melanogaster ryanodine receptor (FIG. 3)” value in assay [4] (96 hr post-transfection, caffeine 10 mM, Compound 16 10 and 100 nM) is listed as “calcium responses elicited”. Moreover, the “calcium responses in control cells without DNA (FIG. 3)” value in assay [5] was “No significant calcium responses”.

For the compound `Cc1cccc(C(=O)NC(C)C)c1NC(=O)c1cc(Br)nn1-c1ncccc1Cl` [Cpd 7], the “Calcium Release Threshold (nM) P. americana” value in assay [1] was <300 nM. Moreover, the concentration for half-maximal inhibition (IC50) in assay [2] is < 300 nM.

Take `CCNC(=O)c1cc(Br)cc(Br)c1NC(=O)c1cc(C(F)(F)F)nn1-c1ncccc1Cl` [Cpd 18]: the concentration for half-maximal inhibition (IC50) in assay [2] is < 300 nM.

On to `Cc1cc(Br)cc(C(=O)NC(C)C)c1NC(=O)c1cc(Br)nn1-c1ncccc1Cl` [Cpd 12], for which the “Calcium Release Threshold (nM) P. americana” value in assay [1] is on record as <300 nM. Besides, the IC50 in assay [2] was < 300 nM.

With `COc1cccc2c1C(=O)c1c(O)c3c(c(O)c1C2=O)C[C@@](O)(C(=O)CO)C[C@@H]3O[C@H]1C[C@H](N)[C@H](O)[C@H](C)O1.Cl` [Doxorubicin, reference compound], the “Calcium Release (P. americana)” value in assay [1] is listed as “Inactive”.

`CC(C)[C@@]1(O)[C@@H](OC(=O)c2ccc[nH]2)[C@@]2(O)[C@@]3(C)C[C@]4(O)O[C@@]5([C@H](O)[C@@H](C)CC[C@]35O)[C@@]2(O)[C@@]14C` [Ryanodine]: in assay [1], the “Calcium Release (P. americana)” value is “Antagonist”. The “Radioligand Displacement (P. americana)” value in assay [2] is “Inactive”. Further, the “Calcium Release (D. melanogaster)” value in assay [4] is recorded as “Antagonist”.

On to `Cc1cccc(C(=O)NC(C)C)c1NC(=O)c1cc(C(F)(F)F)nn1-c1ccccc1Cl` [Cpd 2], for which the “Calcium Release Threshold (nM) P. americana” value in assay [1] is <300 nM. The IC50 in assay [2] is < 300 nM. The “Calcium Release Threshold (nM) D. melanogaster” value in assay [4] is given as <300 nM.

`[3H]c1cc(C)c(NC(=O)c2cc(C(F)(F)F)nn2-c2ccccc2F)c(C(=O)NC(C)C)c1` [Cpd 1, 1-(2-Fluorophenyl)-N-[2-methyl-4-tritio-6-[[(1-methylethyl)amino]carbonyl]phenyl]-3-(trifluoromethyl)-1H-pyrazole-5-carboxamide]: the “Calcium Release Threshold (nM) P. americana” value in assay [1] is given as <1000 nM. In assay [2], the half-maximal inhibitory concentration (IC50) is < 300 nM. The “Calcium Release Threshold (nM) D. melanogaster” value in assay [4] is listed as <300 nM.

For `Cc1cccc(C(=O)NC(C)C)c1NC(=O)c1cc(Cl)nn1-c1ncccc1Cl` [Cpd 8], the “Calcium Release Threshold (nM) P. americana” value in assay [1] is on record as <300 nM. Moreover, the half-inhibitory concentration (IC50) in assay [2] was < 300 nM.

For the compound `Cc1cc(Br)cc(C(=O)NC(C)C)c1NC(=O)c1cc(C(F)(F)F)nn1-c1ncccc1Cl` [Cpd 9], the “Calcium Release Threshold (nM) P. americana” value in assay [1] was <300 nM. In assay [2], the half-inhibitory concentration (IC50) is < 300 nM.

Regarding `N.N.N.N.N.N.N.N.N.N.N.N.N.N.[Cl-].[Cl-].[Cl-].[Cl-].[Cl-].[Cl-].[O-2].[O-2].[Ru+3].[Ru+3].[Ru+4]` [Ruthenium Red, reference compound], the “Calcium Release (P. americana)” value in assay [1] was “Inactive”. For the same compound, in assay [2], the “Radioligand Displacement (P. americana)” value is “Displacer”. For the same compound, the “Calcium Release (D. melanogaster)” value in assay [4] is listed as “Antagonist”.

As to `Cc1cc(Cl)cc(C(=O)NC(C)C)c1NC(=O)c1cc(Br)nn1-c1ncccc1Cl` [Cpd 13], in assay [2], the IC50 was < 300 nM.

As for `Cc1cc(Br)cc(C(=O)NCC(C)C)c1NC(=O)c1cc(C(F)(F)F)nn1-c1ccccc1Cl` [Cpd 3], the IC50 in assay [2] was < 300 nM.

In the case of `CNC(=O)c1cc(Cl)cc(C)c1NC(=O)c1cc(C(F)(F)F)nn1-c1ncccc1Cl` [Cpd 11], the “Calcium Release Threshold (nM) P. americana” value in assay [1] is reported as <300 nM. In assay [2], the half-maximal inhibitory concentration (IC50) is < 300 nM. In addition, the “Calcium Release Threshold (nM) D. melanogaster” value in assay [4] was <300 nM.

In the case of `Cc1cc(Cl)cc(C(=O)NC(C)C)c1NC(=O)c1cc(C(F)(F)F)nn1-c1ncccc1Cl` [Cpd 10], in assay [1], the “Calcium Release Threshold (nM) P. americana” value is <300 nM. In assay [2], the IC50 was < 300 nM.

Turning to `CNC(=O)c1cc(Br)cc(C)c1NC(=O)c1cc(C(F)(F)F)nn1-c1ncccc1Cl` [Cpd 15], in assay [1], the “Calcium Release Threshold (nM) P. americana” value is listed as <300 nM. Also, the IC50 in assay [2] is < 300 nM.
